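96-well plates; 48 h exposure; 5 concentrations. Endpoints by linear interpolation between flanking doses. Not reached: highest tested concentration assigned. GI50 is the concentration that inhibits growth by half.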 Active and inactive are the calls of the source. No stated cut-off is given here; in the data, active = GI50 up to about 1.1 µM and inactive = higher.
How the values were obtained:
Test in all cases: growth of human tumour cells (NCI), 48 h
HT-29 = test system: HT-29
RXF 393 = test system: RXF 393
IGROV-1 = test system: IGROV-1
OVCAR-8 = test system: OVCAR-8
SK-MEL-28 = test system: SK-MEL-28
NCI-H23 = test system: NCI-H23
SK-MEL-2 = test system: SK-MEL-2
A549 = test system: A549
COLO 205 = test system: COLO 205
CCRF-CEM = test system: CCRF-CEM
SK-MEL-5 = test system: SK-MEL-5
HOP-62 = test system: HOP-62
SN12C = test system: SN12C
NCI-H226 = test system: NCI-H226
SK-OV-3 = test system: SK-OV-3
CAKI-1 = test system: CAKI-1
UACC-257 = test system: UACC-257

Measured: GI50

O=C1NC2(C=Cc3c(ccc4ccccc34)O2)Oc2ccccc21 (stereo not given)
inactive: HT-29 11.3 µM | RXF 393 14.3 µM | IGROV-1 28.1 µM | OVCAR-8 26.9 µM | SK-MEL-28 15.6 µM | NCI-H23 26.7 µM | SK-MEL-2 13.2 µM | A549 18.7 µM | COLO 205 14.8 µM | CCRF-CEM 3.95 µM | SK-MEL-5 13.1 µM | HOP-62 31.7 µM | SN12C 17.4 µM | NCI-H226 26.5 µM

CC1CC2C(=O)N(c3ccccc3)C(=O)C2c2[nH]c3ccccc3c21 (stereo not given)
inactive: HT-29 > 100 µM | RXF 393 30.3 µM | IGROV-1 > 100 µM | SK-OV-3 14.2 µM | OVCAR-8 59.3 µM | SK-MEL-28 58.9 µM | NCI-H23 58.9 µM | A549 94 µM | COLO 205 73.3 µM | CCRF-CEM 35.6 µM | SK-MEL-5 > 100 µM | SN12C > 100 µM

CCc1ccccc1NC(=O)C(=O)C(C(=O)c1ccc(OC)cc1)c1ccc(OC)cc1 (stereo not given)
inactive: HT-29 > 100 µM | CAKI-1 > 100 µM | IGROV-1 > 100 µM | SK-OV-3 > 100 µM | OVCAR-8 > 100 µM | NCI-H23 > 100 µM | SK-MEL-2 > 100 µM | A549 > 100 µM | UACC-257 > 100 µM | COLO 205 > 100 µM | CCRF-CEM > 100 µM | SK-MEL-5 > 100 µM | HOP-62 > 100 µM | SN12C > 100 µM | NCI-H226 > 100 µM

CCOC(=O)N1CCc2cc(OC)c(OC)c3c2C1CC3=O (stereo not given)
inactive: HT-29 > 100 µM | RXF 393 > 100 µM | CAKI-1 > 100 µM | IGROV-1 > 100 µM | SK-OV-3 > 100 µM | OVCAR-8 > 100 µM | SK-MEL-2 > 100 µM | A549 > 100 µM | UACC-257 > 100 µM | COLO 205 > 100 µM | CCRF-CEM > 100 µM | SK-MEL-5 > 100 µM | HOP-62 > 100 µM | SN12C > 100 µM

CN(OC(=O)CC(=O)c1ccccc1)C(=O)Cc1ccccc1
inactive: HT-29 > 100 µM | CAKI-1 > 100 µM | IGROV-1 > 100 µM | SK-OV-3 > 100 µM | OVCAR-8 > 100 µM | NCI-H23 > 100 µM | SK-MEL-2 > 100 µM | A549 > 100 µM | UACC-257 > 100 µM | COLO 205 > 100 µM | CCRF-CEM > 100 µM | SK-MEL-5 > 100 µM | HOP-62 > 100 µM | SN12C > 100 µM | NCI-H226 > 100 µM

O=C1c2ccccc2C(=O)N1C/C=N/NS(=O)(=O)c1ccc(F)cc1
inactive: CAKI-1 > 100 µM | IGROV-1 > 100 µM | OVCAR-8 > 100 µM | NCI-H23 > 100 µM | SK-MEL-2 > 100 µM | A549 > 100 µM | UACC-257 > 100 µM | COLO 205 > 100 µM | CCRF-CEM > 100 µM | SK-MEL-5 > 100 µM | SN12C > 100 µM | NCI-H226 > 100 µM

O=C1c2ccccc2N2OC3(N4CCCC4)CCCC3C12c1ccccc1 (stereo not given)
inactive: HT-29 > 100 µM | RXF 393 > 100 µM | IGROV-1 > 100 µM | SK-OV-3 > 100 µM | OVCAR-8 > 100 µM | SK-MEL-28 > 100 µM | NCI-H23 > 100 µM | A549 68.5 µM | UACC-257 71.6 µM | COLO 205 > 100 µM | CCRF-CEM > 100 µM | SK-MEL-5 61.4 µM | HOP-62 > 100 µM | SN12C > 100 µM | NCI-H226 > 100 µM

C=C(C)CCOC(c1ccccc1)(c1ccccc1)c1ccccc1
inactive: HT-29 22.3 µM | RXF 393 18.5 µM | CAKI-1 70.6 µM | IGROV-1 > 100 µM | SK-OV-3 > 100 µM | OVCAR-8 73.5 µM | SK-MEL-28 42.7 µM | NCI-H23 27.8 µM | A549 38.9 µM | UACC-257 25.4 µM | COLO 205 55.1 µM | CCRF-CEM 61.4 µM | SK-MEL-5 27.4 µM | HOP-62 70.5 µM | SN12C 69 µM | NCI-H226 26.3 µM

Cn1nc(-c2ccccc2)c(N=[N+]=[N-])cc1=O
inactive: HT-29 > 100 µM | RXF 393 > 100 µM | CAKI-1 > 100 µM | IGROV-1 > 100 µM | SK-OV-3 1.59 µM | OVCAR-8 > 100 µM | SK-MEL-28 > 100 µM | NCI-H23 > 100 µM | A549 > 100 µM | UACC-257 > 100 µM | COLO 205 > 100 µM | CCRF-CEM > 100 µM | SK-MEL-5 > 100 µM | HOP-62 > 100 µM | SN12C > 100 µM | NCI-H226 > 100 µM

Cc1ccc(S(=O)(=O)N2CCC3(C(/C=C/c4ccccc4)=Nc4ccccc43)C2c2ccccc2)cc1 (stereo not given)
inactive: HT-29 > 100 µM | RXF 393 > 100 µM | CAKI-1 > 100 µM | IGROV-1 1.41 µM | SK-OV-3 > 100 µM | OVCAR-8 > 100 µM | SK-MEL-28 > 100 µM | NCI-H23 > 100 µM | A549 > 100 µM | UACC-257 > 100 µM | COLO 205 > 100 µM | CCRF-CEM > 100 µM | SK-MEL-5 > 100 µM | HOP-62 63.5 µM | SN12C > 100 µM | NCI-H226 37.9 µM

CN(C)c1ccc(/C=C2\Cc3ccccc3C2=O)cc1Br
inactive: HT-29 34.8 µM | CAKI-1 64.1 µM | IGROV-1 > 100 µM | SK-OV-3 > 100 µM | OVCAR-8 63.5 µM | SK-MEL-28 39 µM | NCI-H23 39.2 µM | SK-MEL-2 40.6 µM | A549 61.4 µM | UACC-257 44.8 µM | COLO 205 92.9 µM | CCRF-CEM 34.1 µM | SK-MEL-5 26.4 µM | HOP-62 > 100 µM | SN12C 51.5 µM

N#C/C(=C1\OC(=N)C(c2ccc(Cl)cc2)=C1O)c1ccc(Cl)cc1
inactive: HT-29 18.9 µM | RXF 393 12.4 µM | CAKI-1 17.3 µM | IGROV-1 15.7 µM | SK-OV-3 37.8 µM | OVCAR-8 13.5 µM | SK-MEL-28 26.5 µM | NCI-H23 13.6 µM | A549 20.5 µM | UACC-257 15 µM | COLO 205 18.8 µM | CCRF-CEM 12.8 µM | HOP-62 19.1 µM | SN12C 11 µM | NCI-H226 10 µM

COC(=O)OCC1OC(N2C(=O)NC(=O)C(Br)C2N=[N+]=[N-])CC1OC(=O)OC (stereo not given)
inactive: HT-29 > 100 µM | RXF 393 > 100 µM | CAKI-1 > 100 µM | IGROV-1 > 100 µM | SK-OV-3 > 100 µM | OVCAR-8 > 100 µM | SK-MEL-28 > 100 µM | NCI-H23 > 100 µM | A549 > 100 µM | UACC-257 > 100 µM | COLO 205 > 100 µM | CCRF-CEM > 100 µM | SK-MEL-5 > 100 µM | HOP-62 > 100 µM | SN12C > 100 µM | NCI-H226 > 100 µM

C=CC[C@H]1C[C@@]2(C)OC[C@H](C(C)C)N2C1=O
inactive: HT-29 > 100 µM | RXF 393 > 100 µM | CAKI-1 > 100 µM | IGROV-1 > 100 µM | OVCAR-8 > 100 µM | SK-MEL-28 > 100 µM | NCI-H23 > 100 µM | SK-MEL-2 > 100 µM | A549 > 100 µM | UACC-257 > 100 µM | COLO 205 > 100 µM | CCRF-CEM > 100 µM | SK-MEL-5 > 100 µM | HOP-62 > 100 µM | SN12C > 100 µM

Cn1c(=O)c2c(ncn2CCCCn2ccnc2[N+](=O)[O-])n(C)c1=O
inactive: HT-29 > 100 µM | RXF 393 > 100 µM | IGROV-1 > 100 µM | OVCAR-8 > 100 µM | SK-MEL-28 > 100 µM | NCI-H23 > 100 µM | SK-MEL-2 > 100 µM | A549 > 100 µM | COLO 205 > 100 µM | CCRF-CEM > 100 µM | SK-MEL-5 > 100 µM | HOP-62 > 100 µM | SN12C > 100 µM | NCI-H226 > 100 µM

C=CC(=O)NCCSCCCOC1(C(=O)O)CC(O)C(NC(C)=O)C(C(O)C(O)CO)O1 (stereo not given)
inactive: HT-29 > 100 µM | RXF 393 > 100 µM | IGROV-1 > 100 µM | SK-OV-3 > 100 µM | OVCAR-8 > 100 µM | SK-MEL-28 > 100 µM | NCI-H23 > 100 µM | SK-MEL-2 > 100 µM | A549 > 100 µM | UACC-257 > 100 µM | COLO 205 > 100 µM | SN12C > 100 µM | NCI-H226 > 100 µM

CC(=O)OC[C@]1(O)CC[C@@]23CC1C[C@@H]2CCC1C(C)(C)CCC[C@@]13C (stereo not given in full)
inactive: HT-29 13 µM | RXF 393 7.11 µM | CAKI-1 18.2 µM | IGROV-1 19.7 µM | SK-OV-3 15.2 µM | OVCAR-8 16.6 µM | SK-MEL-28 14.8 µM | NCI-H23 12.8 µM | A549 15.8 µM | UACC-257 15.8 µM | COLO 205 17.8 µM | CCRF-CEM 10.1 µM | SK-MEL-5 15 µM | HOP-62 17.4 µM | SN12C 12.2 µM | NCI-H226 15.8 µM

COC(=O)C1[C@@H](C(=O)OC)C(=O)O[C@H]1c1cc(OC)c(OC)c(OC)c1 (stereo not given in full)
inactive: HT-29 > 100 µM | RXF 393 > 100 µM | CAKI-1 > 100 µM | IGROV-1 > 100 µM | SK-OV-3 > 100 µM | OVCAR-8 > 100 µM | SK-MEL-28 > 100 µM | NCI-H23 > 100 µM | A549 > 100 µM | UACC-257 > 100 µM | COLO 205 > 100 µM | CCRF-CEM > 100 µM | SK-MEL-5 > 100 µM | HOP-62 > 100 µM | SN12C > 100 µM | NCI-H226 > 100 µM

— ChEMBL document CHEMBL1201862, “PubChem BioAssay data set” (2004)
